Assay results published in paper PMC3969020 (Biochemistry, 2014).

What was measured:
Assay type in all cases: biochemical
[1] = target: T1, Horse liver alcohol dehydrogenase (ADH), E isoenzyme (Equus caballus, UniProt P00327); experiment: product inhibition against NAD+
[2] = target: T2, Horse liver alcohol dehydrogenase (ADH), E isoenzyme (Equus caballus, UniProt P00327, V208A); experiment: product inhibition against NAD+
[3] = target: T1, Horse liver alcohol dehydrogenase (ADH), E isoenzyme; experiment: initial velocity and product inhibition kinetics
[4] = target: T2, Horse liver alcohol dehydrogenase (ADH), E isoenzyme; experiment: X-ray crystal structure, […] Å

T1 sequence (P00327 2-375): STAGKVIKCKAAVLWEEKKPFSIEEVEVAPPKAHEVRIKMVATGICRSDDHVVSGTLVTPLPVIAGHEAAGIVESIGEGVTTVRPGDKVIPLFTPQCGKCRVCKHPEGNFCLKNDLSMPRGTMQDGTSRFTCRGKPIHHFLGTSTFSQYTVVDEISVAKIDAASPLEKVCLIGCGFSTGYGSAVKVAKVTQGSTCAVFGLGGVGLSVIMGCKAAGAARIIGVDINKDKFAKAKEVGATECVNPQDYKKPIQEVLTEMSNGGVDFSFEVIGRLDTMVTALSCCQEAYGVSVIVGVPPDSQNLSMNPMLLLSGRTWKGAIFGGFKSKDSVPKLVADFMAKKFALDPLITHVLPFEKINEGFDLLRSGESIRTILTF
T2 sequence (P00327 2-375 V208A): as the sequence (P00327 2-375) above, with V207A counted along it

Ki [1] [µM] | Ki [2] [µM] | Ki [3] [µM] | Ki [4] [µM] | Compound
0.31 ± 0.02 | 0.39 ± 0.01 |  |  | NC(=O)C1=CN([C@@H]2O[C@H](COP(=O)(O)OP(=O)(O)OC[C@H]3O[C@@H](n4cnc5c(N)ncnc54)[C@H](O)[C@@H]3O)[C@@H](O)[C@H]2O)C=CC1 [NADH]
 |  | 20 ± 5 | 59 ± 5 | NC(=O)c1ccc[n+]([C@@H]2O[C@H](COP(=O)([O-])OP(=O)(O)OC[C@H]3O[C@@H](n4cnc5c(N)ncnc54)[C@H](O)[C@@H]3O)[C@@H](O)[C@H]2O)c1 [NAD^+]
